Laboratory results as given in US10174202B2, “Dyes with phosphinic acid, phosphinate, phosphonate and phosphonamidate substituents as auxochromic groups and methods for preparing the same” (Max-Planck-Gesellschaft zur Foerderung der Wissenschaften …, priority 2017, dated 2019).
Where “and” joins values, the source holds several entries; their conditions need not be identical. Identical values can stand only once. Counter-ions that a name gives are not always drawn. Marks after values point to notes of the source that are not given here.

Assays:
[1] = Absorption spectroscopy (UV/Vis); format: physicochemical
Procedure: (§1) Absorption spectra were recorded with a Varian Cary 4000 UV-Vis double-beam spectrophotometer (Agilent Technologies, USA). For the determination of the absorption spectra, quartz cells with a 1 cm path length were used. Emission spectra and fluorescence quantum yield were obtained on a Quantaurus-QY Absolute PL quantum yield spectrometer C11347 (Hamamatsu Photonics, Japan) or on a Varian Cary Eclipse fluorescence spectrometer (Agilent Technologies, USA).

Fluorescence lifetime = format: physicochemical
[2] = Emission spectra and fluorescence quantum yield; format: physicochemical
Procedure: as §1

[3] = test system: vimentin-HaloTag fusion protein in a living HeLa cell; experiment: Confocal and STED imaging of vimentin-HaloTag in living cells; format: cell-based; set-up: key to verified as a label in STED microscopy: verified as a label in super-resolution microscopy based on stimulated emission depletion (STED with 775 nm STED laser)
Procedure: (§2) STED and confocal counterpart images were acquired using the commercially available two-color STED 775 quad scanning microscope from Abberior Instruments (Gottingen, Germany) equipped with an Olympus IX83 microscope stand and an Olympus UplanSApo 100×/1.4 OIL objective. Dyes were excited respective their excitation; the STED laser was pulsed at 775 nm.
(§3) For these experiments, STED optical microscopy was performed as indicated above.
The vimentin-HaloTag was labeled with 16-Halo (1 μM for 20 min at growth conditions, 10 min wash) and excited using a pulsed 594 nm laser. Fluorescence was detected in both available detection channels (605-625 nm, 655-715nm) and summed up for the final images. Scale bar: 4 μm; pixel dwell time: 10 μs; pixel size: 20 nm for both the STED and the confocal image. Each line was scanned four times, and the counts were accumulated.

[4] = test system: tubulin filaments in a methanol-fixed Vero cell; experiment: Confocal and STED imaging of immunolabelled tubulin filaments; format: cell-based; set-up: key to verified as a label in STED microscopy: verified as a label in super-resolution microscopy based on stimulated emission depletion (STED with 775 nm STED laser)
Procedure: as §2, §3
Tubulin was marked using a mouse monoclonal primary antibody against alpha-tubulin together with secondary antibody detection (sheep-anti-mouse conjugated with the dye 23-NHS). 23 was excited using a pulsed 485 nm laser. Fluorescence was detected in both available detection channels (605-625 nm, 655-715nm) and summed up for the final images. Scale bar: 4 μm; pixel dwell time: 10 μs; pixel size: 25 nm for both the STED and the confocal image. Each line in the STED channel was scanned twice, and the counts were accumulated.

Structure (SMILES) | Absorption max. ([1]; in acetonitrile) [nm] | ε at absorption max. ([1]; in acetonitrile) [M⁻¹ cm⁻¹] | Emission max. ([2]; in acetonitrile) [nm] | QY (fluorescence quantum yield, Φfl) ([2]; in acetonitrile) | Stokes shift ([2]; in acetonitrile) | Stability (Stability of the dyes) | Absorption max. ([1]; in aq. PBS, pH 7.4) [nm] | ε at absorption max. ([1]; in aq. PBS, pH 7.4) [M⁻¹ cm⁻¹] | Emission max. ([2]; in aq. PBS, pH 7.4) [nm] | QY (fluorescence quantum yield, Φfl) ([2]; in aq. PBS, pH 7.4) | Stokes shift ([2]; in aq. PBS, pH 7.4) | also measured
COP(=O)([c+]1c2ccc(N(C)C)cc2sc2cc(N(C)C)ccc21)N(C(C)C)C(C)C.O=C([O-])C(F)(F)F (stereo not shown) [Compound 21, 9-[(Diisopropylamino)(methoxy)phosphoryl]-3,6-bis(dimethylamino)-9H-thioxanthen-9-ylium trifluoroacetate] | 654 | 64000 | 728 | 0.10 | 74^a nm | moderate | – | – | – | – | – | fluorescence lifetime (Fluorescence lifetime; in acetonitrile): 0.77 ns
COP(=O)([C+]1c2ccc(N(C)C)cc2-c2cccc3c(N(C)C)ccc1c23)N(C(C)C)C(C)C.O=C([O-])C(F)(F)F (stereo not shown) [Compound 28, 7-[(Diisopropylamino)(methoxy)phosphoryl]-4,10-bis(dimethylamino)-7H-benzo[de]anthracen-7-ylium trifluoroacetate] | – | – | – | – | – | poor | 644 | 7600 | 782 | 0.04 | 138^b nm | –
CCN(CC)CC.CN(CCCCCC(=O)[O-])C(=O)CCP(=O)(O)c1c2ccc(N(C)C)cc2[o+]c2cc(N(C)C)ccc12 [Compound 16, Triethylammonium 6-[3-[[3,6-bis(dimethylamino)-9H-xanthenylium-9-yl]oxidophosphoryl]-N-methylpropanamido]hexanoate] | – | – | – | – | – | – | – | – | – | – | – | ε at absorption max. ([1]; pH 7.4): 10750 M⁻¹ cm⁻¹; Emission max. ([2]; pH 7.4): 636 nm and 636 ^ (0.30)^b nm; Stokes shift ([2]; pH 7.4): 33^b nm; verified as a label in STED microscopy ([3]; STED with 775 nm STED laser): good^f
CC(C)OP(=O)(OC(C)C)C1=C2C=CC(=[N+](C)C)C=C2C(C)(C)c2cc(N(C)C)ccc21 [Compound 24, 9-(Diisopropoxyphosphoryl)-3,6-bis(dimethylamino)-10,10-dimethyl-9,10-dihydro-anthracenylium trifluoromethanesulfonate] | – | – | – | – | – | moderate | – | – | – | – | – | –
CN(C)c1ccc2c(P(=O)(Oc3ccccc3C(=O)[O-])N(C)C)c3ccc(=[N+](C)C)cc-3oc2c1 (stereo not shown) [Compound 9, 2-[[3,6-Bis(dimethylamino)-9H-xanthenylium-9yl](dimethylamino)phosphoryloxy]-benzoate] | – | – | – | – | – | moderate | 603 | 69000 | 638 | 0.09 | 35 nm | Absorption max. ([1]; in methanol): 589 nm; ε at absorption max. ([1]; in methanol): 49000 M⁻¹ cm⁻¹; fluorescence lifetime (Fluorescence lifetime; in aq. PBS, pH 7.4): 1.88 ns; Emission max. ([2]; in methanol): 622 nm; QY (fluorescence quantum yield, Φfl) ([2]; in methanol): 0.36; Stokes shift ([2]; in methanol): 33 nm
C=CCOP(=O)(C1=c2cc3c(cc2C(C)(C)c2cc4c(cc21)CCCN4CCOC)=[N+](CCOC)CCC3)N(C(C)C)C(C)C (stereo not shown) [Compound 26, 6-[(Allyloxy)(diisopropylamino)phosphoryl]-1,11-bis(2-methoxyethyl)-13,13-dimethyl-1,2,3,4,6,8,9,10,11,13-decahydrobenzo[1,2-g:5,4-g′]diquinolin-6-ylium trifluoroacetate] | 724 | 46700 | 812 | 0.08 | 88 nm | poor | 734 | 34700 | 860 | 0.05 | 126 nm | –
CN(C)c1ccc2c([PH](=O)O)c3ccc(N(C)C)cc3[n+](CCCC(=O)O)c2c1.O=C([O-])C(F)(F)F [Compound 23, 10-(3-Carboxypropyl)-3,6-bis(dimethylamino)-9-(hydroxyhydrophosphoryl)acridinium trifluoroacetate] | – | – | – | – | – | – | 535 | 38000 | – | 0.14 and 0.10 | – | Absorption max. ([1]; in methanol): 527 nm; ε at absorption max. ([1]; in methanol): 67000 M⁻¹ cm⁻¹; fluorescence lifetime (Fluorescence lifetime; in aq. PBS, pH 7.4): 1.36 ns; Emission max. ([2]; in methanol): 579 nm; QY (fluorescence quantum yield, Φfl) ([2]; in methanol): 0.75; verified as a label in STED microscopy ([4]; STED with 775 nm STED laser): f
CN(C)c1ccc2c(P(=O)([O-])CCC(=O)NCCOCCOCCCCCCCl)c3ccc(=[N+](C)C)cc-3oc2c1 [Compound 16-Halo, 3-[[2[2-(6-chlorohexyloxy)ethoxy]ethyl]amino]-3-oxopropyl[6-(dimethylamino)-3-(dimethyliminio)-3H-xanthen-9-yl]phosphinate] | – | – | – | – | – | – | – | – | – | – | – | labelling of vimentin-HaloTag ([3]; 1 μM for 20 min at growth conditions, 10 min wash, excitation 594 nm): labeled
C=CCOP(=O)(C1=C2C=CC(=[N+](C)C)C=C2C(C)(C)c2cc(N(C)C)ccc21)N(C(C)C)C(C)C (stereo not shown) [Compound 25, 9-[(Allyloxy)(diisopropylamino)phosphoryl]-3,6-bis(dimethylamino)-10,10-dimethyl-9,10-dihydroanthracenylium trifluoromethanesulfonate] | – | – | – | – | – | poor | – | – | – | – | – | –
CCOP(=O)(c1c2ccc(=[N+](C)C)cc-2oc2cc(N(C)C)ccc12)N(C)CCC(=O)O.O=C([O-])C(F)(F)F (stereo not shown) [Compound 10] | 615 | 22224 | 652 | 0.46 | 37 nm | – | 625 | 13816 | 670 | 0.15 | 45 nm | stability of solutions (Stability of the dyes; protic solvents (MeOH, H2O), particularly in the presence of acids, forms compound 11): spontaneously decompose
CCN(CC)c1ccc2c(P(=O)(OC(C)(C)C)OC(C)(C)C)c(-c3nc4ccccc4s3)c(=O)oc2c1 [Compound 3, Di-tert-butyl [3-(benzo[d]thiazol-2-yl)-7-(diethylamino)-2-oxo-2H-chromen-4-yl]phosphonate] | 434 | 39000 | 658 | 0.29 | 224^a nm | – | – | – | – | – | – | fluorescence lifetime (Fluorescence lifetime; in acetonitrile): 2.49^a ns
COP(=O)(OC)c1c(-c2nc3ccccc3s2)c(=O)oc2cc(N3CC(O)C3)ccc12 [Compound 2, Dimethyl [3-(benzo[d]thiazol-2-yl)-7-(3-hydroxyazetidin-1-yl)-2-oxo-2H-chromen-4-yl]phosphonate] | 424 | 19000 | 651 | 0.16 | 227^a nm | – | – | – | – | – | – | fluorescence lifetime (Fluorescence lifetime; in acetonitrile): 1.99^a ns
CN(C)c1ccc2c([PH](=O)[O-])c3ccc(N(C)C)cc3[n+](CCCC(=O)ON3C(=O)CCC3=O)c2c1 [Compound 23-NHS, [10-(3-Carboxypropyl)-3,6-bis(dimethylamino)acridinium-9-yl]phosphinate NHS ester] | – | – | – | – | – | – | – | – | – | – | – | labelling of tubulin via secondary antibody conjugate ([4]; sheep-anti-mouse antibody conjugated with the dye, excitation 485 nm): marked
